According to patent US20250243160A1, “INDOLE DERIVATIVES FOR TARGETING AUTOPHAGY” (Automera PTE. LTD, priority 2024, published 2025):

Tested on: p62 puncta
Test: p62 puncta immunocytochemistry imaging in HeLa cells
Type: cell-based
Conditions: 24 hours treatment, relative to vehicle control (DMSO)
Experimental: HeLa cells were seeded in coated 96-well plates (10,000 cells) and allowed to adhere overnight. After 24 hours of treatment with either vehicle (DMSO) or test compounds, the media was discarded, and cells were rinsed with ice-cold 1×PBS before fixation by 4% formaldehyde or paraformaldehyde for 20 min. Cells were then washed with 1×PBS and permeabilized with 0.1% Triton X-100 in PBS for 20 min and blocked with Blocking Buffer in PBS for 1 hour. The cells were incubated thereafter for 1 hour with anti-p62 primary antibody in Blocking Buffer, followed by incubation with secondary antibody for 1 hour. DAPI dye was used to visualize nuclei of fixed cells. The blocking buffer used were 5% Fetal Bovine Serum (FBS, ThermoFIsher Scientific, 10270106) and Li-cor Intercept (PBS) Blocking Buffer (Li-cor, 927-70001). The primary antibody used was mouse anti-p62 primary antibody (Novus Biologicals, H00008878-M01). The secondary antibodies used were goat anti-mouse Alexa Fluor Plus 488 secondary antibody (Invitrogen, GOXMS) and goat anti-mouse Alexa Fluor 488 secondary antibody (Invitrogen, A-11029). The DAPI dyes used were DAPI dye (Invitrogen, 62248) and DAPI dye (Invitrogen, D1306).
For the EVOS M7000 System, cells were imaged on the EVOS M7000 microscope using a 20× air objective (Nikon, N.A 0.45). DAPI and p62 channels were illuminated with LED light cubes using integrated hard-coated filter sets for DAPI (357/447 nm) and GFP (470/525 nm) respectively. Images were analysed for p62 puncta count on the Celeste 6.0 software.
For the Operetta CLS System, cells were imaged on the Operetta CLS using a 63× water objective on the DAPI and Alexa 488 channels. Images were analysed for p62 puncta count on the Harmony 5.1 software.
HeLa cells were treated with compounds for 24 hours to evaluate the effect of these compounds on p62 puncta activity. The resulting changes in levels of p62 puncta were assessed by imaging, either on the EVOS M7000 or Operetta CLS systems as described in experimental procedures. The fold change of p62 puncta levels induced by compound treatment relative to vehicle control (DMSO) was determined and summarized in Table 10.

Row | Structure (SMILES) | p62 puncta (fold change of p62 puncta levels)
1 | CC(C)(C)OC(=O)CCOCCNCc1cc(F)cc2c1ccn2Cc1ccc(Cl)cc1 [Compound 142] | + (<2-fold change in p62 puncta levels relative to DMSO control)
2 | CC(C)(C)OC(=O)NCCN1CCN(CCOCCNCc2cc(F)cc3c2ccn3Cc2ccc(Cl)cc2)CC1 [Compound 128] | ++ (>2-fold change in p62 puncta levels relative to DMSO control)
3 | CC(C)(C)OC(=O)NCCCOCCNCc1cc(F)cc2c1ccn2Cc1ccc(Cl)cc1 [Compound 163] | ++ (>2-fold change in p62 puncta levels relative to DMSO control)
4 | CC(C)(C)OC(=O)N1CC(OCCNCc2cc(F)cc3c2ccn3Cc2ccc(Cl)cc2)C1 [Compound 167] | ++ (>2-fold change in p62 puncta levels relative to DMSO control)
5 | Fc1cc(CNCCOCCOCCOCCCOc2ccccc2)c2ccn(Cc3ccc(Cl)cc3)c2c1 [Compound 94] | ++ (>2-fold change in p62 puncta levels relative to DMSO control)
6 | COC1CCN(CCOCCNCc2cc(F)cc3c2ccn3Cc2ccc(Cl)cc2)CC1 [Compound 129] | ++ (>2-fold change in p62 puncta levels relative to DMSO control)
7 | C#CCCCCCCOCCNCc1cc(F)cc2c1ccn2Cc1ccc(Cl)cc1 [Compound 151] | + (<2-fold change in p62 puncta levels relative to DMSO control)
8 | CC(C)(C)OC(=O)Nc1cccc(COCCNCc2cc(F)cc3c2ccn3Cc2ccc(Cl)cc2)c1 [Compound 162] | ++ (>2-fold change in p62 puncta levels relative to DMSO control)
9 | COC(=O)C1(COCCNCc2cc(F)cc3c2ccn3Cc2ccc(Cl)cc2)COC1 [Compound 155] | + (<2-fold change in p62 puncta levels relative to DMSO control)
10 | CC(C)(C)OC(=O)NCC1CC(COCCNCc2cc(F)cc3c2ccn3Cc2ccc(Cl)cc2)C1 (centres unmarked) [Compound 172] | ++ (>2-fold change in p62 puncta levels relative to DMSO control)
11 | CC(C)(C)OC(=O)N1CCC(OCCOCCNCc2cc(F)cc3c2ccn3Cc2ccc(Cl)cc2)CC1 [Compound 93] | ++ (>2-fold change in p62 puncta levels relative to DMSO control)
12 | CC(C)(C)OC(=O)N1CCC(OCCNCc2cc(F)cc3c2ccn3Cc2ccc(Cl)cc2)C1 (centres unmarked) [Compound 166] | ++ (>2-fold change in p62 puncta levels relative to DMSO control)
13 | CC(C)(C)OC(=O)Nc1ccc(COCCNCc2cc(F)cc3c2ccn3Cc2ccc(Cl)cc2)cc1 [Compound 160] | ++ (>2-fold change in p62 puncta levels relative to DMSO control)
14 | C#CCCCCCCCCOCCNCc1cc(F)cc2c1ccn2Cc1ccc(Cl)cc1 [Compound 170] | ++ (>2-fold change in p62 puncta levels relative to DMSO control)
15 | CNCCOCc1cc(F)cc2c1ccn2Cc1ccc(Cl)cc1 [Compound 178] | ++ (>2-fold change in p62 puncta levels relative to DMSO control)
16 | Cc1cn(Cc2ccc(F)cc2)c2cc(F)cc(CNCCO)c12 [Compound 81] | ++ (>2-fold change in p62 puncta levels relative to DMSO control)
17 | CC(C)(C)OC(=O)NCCOCCOCCNCc1cc(F)cc2c1ccn2Cc1ccc(Cl)cc1 [Compound 135] | ++ (>2-fold change in p62 puncta levels relative to DMSO control)
18 | CC(C)(C)OC(=O)N1CCC(COCCOCCNCc2cc(F)cc3c2ccn3Cc2ccc(Cl)cc2)CC1 [Compound 174] | ++ (>2-fold change in p62 puncta levels relative to DMSO control)

Row | Structure (SMILES) | p62 puncta (fold change of p62 puncta levels)
19 | CCOC(=O)C1CCN(C(=O)COCCNCc2cc(F)cc3c2ccn3Cc2ccc(Cl)cc2)CC1 [Compound 152] | + (<2-fold change in p62 puncta levels relative to DMSO control)
20 | COC(=O)c1ccc(OCCOCCNCc2cc(F)cc3c2ccn3Cc2ccc(Cl)cc2)cc1 [Compound 168] | ++ (>2-fold change in p62 puncta levels relative to DMSO control)
21 | COC(=O)c1ccc(N2CCC(COCCNCc3cc(F)cc4c3ccn4Cc3ccc(Cl)cc3)CC2)cc1 [Compound 171] | ++ (>2-fold change in p62 puncta levels relative to DMSO control)
22 | C#CCCOCCNCc1cc(F)cc2c1ccn2Cc1ccc(F)cc1 [Compound 125] | + (<2-fold change in p62 puncta levels relative to DMSO control)
23 | C#CCOCCOCCOCCNCc1cc(F)cc2c1ccn2Cc1ccc(Cl)cc1 [Compound 137] | ++ (>2-fold change in p62 puncta levels relative to DMSO control)
24 | CC(C)(C)OC(=O)NC1(COCCNCc2cc(F)cc3c2ccn3Cc2ccc(Cl)cc2)CC1 [Compound 165] | ++ (>2-fold change in p62 puncta levels relative to DMSO control)
25 | COC(=O)CCOCCNCC(O)COc1cccc2c1ccn2Cc1ccccc1 (centres unmarked) [Compound 118] | ++ (>2-fold change in p62 puncta levels relative to DMSO control)
26 | CC(C)(C)OC(=O)CCCCCOCCNCc1cc(F)cc2c1ccn2Cc1ccc(Cl)cc1 [Compound 150] | + (<2-fold change in p62 puncta levels relative to DMSO control)
27 | O=C(Cn1ccc2c(CNCCO)cc(F)cc21)c1ccc(F)cc1 [Compound 83, 2-(6-fluoro-4-(((2-hydroxyethyl)amino)methyl)-1H-indol-1-yl)-1-(4-fluorophenyl)ethan-1-one] | ++ (>2-fold change in p62 puncta levels relative to DMSO control)
28 | OCCNCc1cc2ccn(Cc3ccc(F)cc3)c2cc1F [Compound 112, 2-(((6-fluoro-1-(4-fluorobenzyl)-1H-indol-5-yl)methyl)amino)ethan-1-ol] | ++ (>2-fold change in p62 puncta levels relative to DMSO control)
29 | CC(C)(C)OC(=O)CCCOCCNCc1cc(F)cc2c1ccn2Cc1ccc(Cl)cc1 [Compound 154] | ++ (>2-fold change in p62 puncta levels relative to DMSO control)
30 | Fc1cc(CNCCOCCCCl)c2ccn(Cc3ccc(Cl)cc3)c2c1 [Compound 146] | ++ (>2-fold change in p62 puncta levels relative to DMSO control)
31 | COC(=O)c1ccc(COCCNCc2cc(F)cc3c2ccn3Cc2ccc(Cl)cc2)cc1 [Compound 144] | + (<2-fold change in p62 puncta levels relative to DMSO control)
32 | COC(=O)CCOCCOCCOCCNCc1cc(F)cc2c1ccn2Cc1ccc(Cl)cc1 [Compound 169] | + (<2-fold change in p62 puncta levels relative to DMSO control)
33 | CC(C)(C)OC(=O)NCCOCCOCCOCCNCc1cc(F)cc2c1ccn2Cc1ccc(Cl)cc1 [Compound 136] | ++ (>2-fold change in p62 puncta levels relative to DMSO control)
34 | CC(C)(C)OC(=O)NCCCCCCOCCNCc1cc(F)cc2c1ccn2Cc1ccc(Cl)cc1 [Compound 159] | ++ (>2-fold change in p62 puncta levels relative to DMSO control)
35 | CC(C)(C)OC(=O)N1CCC(CCOCCNCc2cc(F)cc3c2ccn3Cc2ccc(Cl)cc2)CC1 [Compound 161] | ++ (>2-fold change in p62 puncta levels relative to DMSO control)
